Earlier results in patent publication EP0523845A2, “New benzodiazepine analogs” (MERCK & CO. INC., priority 1991, dated 1993).

Conditions: cited from Deschodt-Lanckman et al., Reg. Pept. 2, 15 (1981)

CSCC[C@H](NC(=O)[C@H](Cc1ccc(OS(=O)(=O)O)cc1)NC(=O)[C@@H](N)CC(=O)O)C(=O)NCC(=O)N[C@@H](Cc1c[nH]c2ccccc12)C(=O)N[C@@H](CCSC)C(=O)N[C@@H](CC(=O)O)C(=O)N[C@@H](Cc1ccccc1)C(N)=O [CCK-8s, H-Asp-Tyr(S03H)-Met-Gly-Trp-Met-Asp-Phe-NH2]
half-life: less than 1 hour
